Data as given in patent EP0099673A2, “Prostaglandin D derivatives, process for their preparation and compositions containing them” (ONO PHARMACEUTICAL CO., LTD., priority 1982, dated 1984).

Test system: human myelogenous leukemic cells (HL-60)
Assay: Test on inhibition of proliferation using human myelogenous leukemic cells (HL-60)
Assay type: cell-based
Conditions: for Percentage Inhibition: HL-60, compound at 5 pg/ml, 4 days at 37 C, relative to control (0.1% ethanol); for Surviving Cell Number: HL-60, start 1 x 10^5 cells/ml, compound at 5 pg/ml, stationary culture at 37 C for 4 days, Trypan Blue staining, control 29.4 x 10^4
Procedure: rest on Inhibition of Proliferation Using Human Myeloqenous Leukemic Cells (HL-60)
The test on the inhibition of proliferation of human myelogenous leukemic cells was conducted by a well-known method. The human myelogenous leukemic cells (HL-60) were added to an RPMI culture solution containing 10% bovine fetal serum, the number of cells in the culture solution was adjusted to 1 x 10^5 cells/ml, a solution in ethanol of the compound under test was added to give a concentration of 5 pg/ml, and the mixture was subjected to stationary culture at 37 C for 4 days. As a control, a culture solution to which 0.1% of ethanol had been added was similarly cultured. After the cultivation, the culture solutions were stained by the Trypan Blue staining method and the surviving cell number was measured to determine the percentage inhibition relative to the control.

Compound	Percentage Inhibition [%]	Surviving Cell Number [cells/ml]
CCCCCC=CC=C1C(=O)C[C@H](O)[C@@H]1CC(=O)CCCCC(=O)OC [(12EZ,14EZ)-(9α)-6,11-Dioxo-9-hydroxyprosta-12,14-dienoic acid methyl ester]	100	0
CCCCCC=CC=C1C(=O)C=C[C@@H]1CC(=O)CCCCC(=O)OC [Methyl (9Z,12EZ,14EZ)-6,11-dioxoprosta-9,12,14-trienoate]	100	0
Methyl (13E)-(9α,15S)-6,11-dioxo-9,15- dihvdroxvprost-13-enoate [6-Keto-PGD1 methyl ester]	100	0
